Test results as given in PMC3969223, “Characterization of WZ4003 and HTH-01-015 as selective inhibitors of the LKB1-tumour-suppressor-activated NUAK kinases” (Biochemical Journal, 2013).
Like-named read-outs stand apart in the source and are kept apart here.

How the values were obtained:
Type in all cases: biochemical
ABL = ABL (Homo sapiens, UniProt P00519); assay: Kinase profiling; details: for Inhibition of ABL in profiling (in words): 1 μM; for ABL activity, percentage of DMSO control: 0.1 or 1 μM inhibitor, mean of triplicate
Description: (§1) Kinase inhibitor specificity profiling assays were carried out at The International Centre for Protein Kinase Profiling (http://www.kinase-screen.mrc.ac.uk/) against a panel of 140 protein kinases as described previously. Results are presented as a percentage of kinase activity in DMSO control reactions. Protein kinases were assayed in vitro with 0.1 or 1 μM of the inhibitors and the results are presented as an average of triplicate reactions±S.D. or in the form of comparative histograms.

Aurora A = molecular target: T1, Aurora A (Homo sapiens, UniProt O14965); assay: Kinase profiling; details: for Inhibition of Aurora A in profiling (in words; Aurora isoforms): 1 μM
T1 sequence (O14965 1-403): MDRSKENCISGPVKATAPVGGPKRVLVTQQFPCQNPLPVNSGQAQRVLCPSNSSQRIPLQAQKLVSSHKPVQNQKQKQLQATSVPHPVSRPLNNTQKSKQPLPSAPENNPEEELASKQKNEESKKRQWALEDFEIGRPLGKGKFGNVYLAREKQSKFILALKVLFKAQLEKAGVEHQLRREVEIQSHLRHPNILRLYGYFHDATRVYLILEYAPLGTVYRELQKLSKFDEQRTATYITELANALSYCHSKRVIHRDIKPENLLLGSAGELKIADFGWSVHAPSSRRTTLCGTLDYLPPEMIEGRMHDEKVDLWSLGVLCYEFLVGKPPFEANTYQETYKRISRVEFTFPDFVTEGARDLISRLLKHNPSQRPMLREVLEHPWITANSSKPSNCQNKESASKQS
Description: as §1

JAK2 = JAK2 (Homo sapiens, UniProt O60674); assay: Kinase profiling; details: for Inhibition of JAK2 in profiling (in words): 1 μM; for JAK2 activity, percentage of DMSO control: 0.1 or 1 μM inhibitor, mean of triplicate
Description: as §1

NUAK1 = molecular target: T2, NUAK1 (Homo sapiens, UniProt O60285); assay: GST–NUAK1 Sakamototide peptide kinase assay; details: 200 μM Sakamototide, 100 μM [γ-32P]ATP; read-out: IC50 for NUAK1 (wild-type GST–NUAK1)
T2 construct: made in house; host or cells: HEK-293 cells, transient transfection of pEBG2T construct
T2 sequence (O60285 1-661): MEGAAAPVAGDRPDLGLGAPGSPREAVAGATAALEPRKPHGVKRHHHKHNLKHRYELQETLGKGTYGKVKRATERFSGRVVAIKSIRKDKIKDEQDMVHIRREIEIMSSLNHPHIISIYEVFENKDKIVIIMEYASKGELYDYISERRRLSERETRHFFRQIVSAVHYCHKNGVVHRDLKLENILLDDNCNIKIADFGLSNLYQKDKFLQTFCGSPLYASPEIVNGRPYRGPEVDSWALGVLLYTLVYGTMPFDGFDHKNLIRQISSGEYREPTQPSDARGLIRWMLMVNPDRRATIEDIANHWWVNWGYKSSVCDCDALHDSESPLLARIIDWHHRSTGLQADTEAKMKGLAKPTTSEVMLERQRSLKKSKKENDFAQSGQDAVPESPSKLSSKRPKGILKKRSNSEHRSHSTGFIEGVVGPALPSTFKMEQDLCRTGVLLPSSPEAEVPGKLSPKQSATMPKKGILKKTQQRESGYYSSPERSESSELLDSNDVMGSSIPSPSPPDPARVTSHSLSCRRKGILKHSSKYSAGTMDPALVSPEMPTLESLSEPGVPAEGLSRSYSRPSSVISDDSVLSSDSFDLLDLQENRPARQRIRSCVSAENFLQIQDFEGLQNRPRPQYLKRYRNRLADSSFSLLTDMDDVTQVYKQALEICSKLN
Description: (§2) Active GST–NUAK1, GST–NUAK1[A195T] and GST–NUAK2 enzymes were purified using glutathione–Sepharose from HEK-293 cell lysates 36–48 h following the transient transfection of pEBG2T mammalian constructs expressing N-terminal GST-tagged NUAK1, NUAK1[A195T] or NUAK2. For peptide kinase assays, 96-well plates were used, and each reaction was performed in triplicate. Each reaction was set up in a total volume of 50 μl containing 100 ng of NUAK1 (wild-type or A195T mutant) or NUAK2 in 50 mM Tris/HCl (pH 7.5), 0.1 mM EGTA, 10 mM magnesium acetate, 200 μM Sakamototide, 0.1 mM [γ-^32P]ATP (450–500 c.p.m./pmol) and the indicated concentrations of inhibitors dissolved in DMSO. After incubation for 30 min at 30°C, reactions were terminated by adding 25 mM (final) EDTA to chelate the magnesium. Then, 40 μl of the reaction mix was spotted on to P81 paper and immersed in 50 mM orthophosphoric acid. Samples were washed three times in 50 mM orthophosphoric acid followed by a single acetone rinse and air drying. The incorporation of [γ-^32P]ATP into Sakamototide was quantified by Cerenkov counting. The values were expressed as a percentage of the DMSO control. IC50 curves were developed and IC50 values were calculated using GraphPad Prism software.

NUAK2 = molecular target: T3, NUAK2 (Homo sapiens, UniProt Q9H093); assay: GST–NUAK2 Sakamototide peptide kinase assay; details: for Inhibition of NUAK2 (in words): results not shown; for IC50: 200 μM Sakamototide, 100 μM [γ-32P]ATP
T3 construct: made in house; host or cells: HEK-293 cells, transient transfection of pEBG2T construct
T3 sequence (Q9H093 1-628): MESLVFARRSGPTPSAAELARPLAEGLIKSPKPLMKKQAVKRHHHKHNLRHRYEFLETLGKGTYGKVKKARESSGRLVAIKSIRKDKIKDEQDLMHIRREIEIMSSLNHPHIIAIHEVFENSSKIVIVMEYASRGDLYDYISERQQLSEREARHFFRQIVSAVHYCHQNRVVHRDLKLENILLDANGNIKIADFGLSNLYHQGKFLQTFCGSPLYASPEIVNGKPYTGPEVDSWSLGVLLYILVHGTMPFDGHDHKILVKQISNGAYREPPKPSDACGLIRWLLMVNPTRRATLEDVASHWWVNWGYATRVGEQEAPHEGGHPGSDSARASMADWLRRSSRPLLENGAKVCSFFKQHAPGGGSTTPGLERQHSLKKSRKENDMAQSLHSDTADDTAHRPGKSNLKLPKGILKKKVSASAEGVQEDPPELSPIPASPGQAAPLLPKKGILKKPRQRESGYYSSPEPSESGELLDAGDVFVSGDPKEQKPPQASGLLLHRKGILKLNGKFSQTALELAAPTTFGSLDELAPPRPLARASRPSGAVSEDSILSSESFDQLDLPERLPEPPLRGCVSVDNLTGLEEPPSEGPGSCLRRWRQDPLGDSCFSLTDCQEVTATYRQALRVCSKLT
Description: as §2

JAK2, sequence (O60674 whole entry): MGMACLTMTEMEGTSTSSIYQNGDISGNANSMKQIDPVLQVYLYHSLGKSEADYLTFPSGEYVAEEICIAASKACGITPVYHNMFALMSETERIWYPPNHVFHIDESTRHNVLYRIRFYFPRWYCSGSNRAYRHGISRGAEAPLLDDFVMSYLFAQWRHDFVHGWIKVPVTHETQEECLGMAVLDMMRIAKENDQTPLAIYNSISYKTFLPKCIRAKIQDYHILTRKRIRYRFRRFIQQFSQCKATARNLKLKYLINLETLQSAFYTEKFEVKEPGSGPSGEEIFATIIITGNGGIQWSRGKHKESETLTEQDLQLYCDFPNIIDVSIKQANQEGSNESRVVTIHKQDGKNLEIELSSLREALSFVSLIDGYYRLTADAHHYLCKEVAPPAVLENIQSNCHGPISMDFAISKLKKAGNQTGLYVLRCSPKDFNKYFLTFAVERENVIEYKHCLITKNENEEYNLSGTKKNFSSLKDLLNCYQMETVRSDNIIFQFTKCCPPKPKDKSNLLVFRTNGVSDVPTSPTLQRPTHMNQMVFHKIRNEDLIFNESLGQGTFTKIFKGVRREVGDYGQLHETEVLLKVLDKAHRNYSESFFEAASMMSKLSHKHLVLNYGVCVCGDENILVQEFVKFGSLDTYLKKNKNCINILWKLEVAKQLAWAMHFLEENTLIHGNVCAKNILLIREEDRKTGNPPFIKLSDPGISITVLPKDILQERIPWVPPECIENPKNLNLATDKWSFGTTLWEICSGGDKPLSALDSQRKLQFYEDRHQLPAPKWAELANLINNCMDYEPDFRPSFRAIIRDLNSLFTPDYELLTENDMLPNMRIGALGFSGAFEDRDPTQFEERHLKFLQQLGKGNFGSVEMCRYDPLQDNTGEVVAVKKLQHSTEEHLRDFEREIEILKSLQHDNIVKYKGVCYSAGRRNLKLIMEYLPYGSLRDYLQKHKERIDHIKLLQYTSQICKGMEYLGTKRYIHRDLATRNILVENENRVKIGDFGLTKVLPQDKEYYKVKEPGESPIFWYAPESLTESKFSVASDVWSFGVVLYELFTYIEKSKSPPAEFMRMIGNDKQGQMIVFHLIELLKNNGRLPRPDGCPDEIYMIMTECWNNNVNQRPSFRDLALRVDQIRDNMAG
ABL, sequence (P00519 whole entry): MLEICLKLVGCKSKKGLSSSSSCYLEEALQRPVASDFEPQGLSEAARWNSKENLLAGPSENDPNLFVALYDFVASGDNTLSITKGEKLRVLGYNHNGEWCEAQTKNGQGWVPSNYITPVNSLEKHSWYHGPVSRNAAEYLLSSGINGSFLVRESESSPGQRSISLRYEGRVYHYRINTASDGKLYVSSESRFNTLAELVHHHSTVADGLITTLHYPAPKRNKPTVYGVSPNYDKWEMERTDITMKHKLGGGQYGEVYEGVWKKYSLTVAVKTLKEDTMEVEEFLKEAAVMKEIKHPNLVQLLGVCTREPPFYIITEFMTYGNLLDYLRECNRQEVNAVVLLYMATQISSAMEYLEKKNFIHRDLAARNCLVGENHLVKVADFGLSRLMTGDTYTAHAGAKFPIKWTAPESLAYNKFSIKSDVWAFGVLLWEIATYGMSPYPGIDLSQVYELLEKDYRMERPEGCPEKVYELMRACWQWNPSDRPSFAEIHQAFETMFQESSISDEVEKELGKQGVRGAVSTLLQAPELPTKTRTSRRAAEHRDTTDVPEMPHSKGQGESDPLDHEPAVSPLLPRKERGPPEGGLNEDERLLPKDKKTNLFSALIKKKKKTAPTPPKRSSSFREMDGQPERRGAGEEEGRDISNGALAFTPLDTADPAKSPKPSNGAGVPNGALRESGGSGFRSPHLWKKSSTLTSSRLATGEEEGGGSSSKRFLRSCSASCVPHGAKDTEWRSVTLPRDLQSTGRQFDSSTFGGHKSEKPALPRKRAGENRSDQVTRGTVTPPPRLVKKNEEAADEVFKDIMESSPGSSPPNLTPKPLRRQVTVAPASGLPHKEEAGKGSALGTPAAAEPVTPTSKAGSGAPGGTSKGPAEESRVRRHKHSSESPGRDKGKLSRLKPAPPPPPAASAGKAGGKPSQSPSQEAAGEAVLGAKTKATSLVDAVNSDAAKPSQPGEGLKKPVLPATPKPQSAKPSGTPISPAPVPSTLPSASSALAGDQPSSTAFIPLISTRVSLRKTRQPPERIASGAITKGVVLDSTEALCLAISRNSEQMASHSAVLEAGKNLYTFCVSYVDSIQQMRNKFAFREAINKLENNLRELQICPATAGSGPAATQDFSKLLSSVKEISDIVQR

SMILES	Inhibition of ABL in profiling (in words) (ABL)	Inhibition of Aurora A in profiling (in words; Aurora isoforms) (Aurora A)	Inhibition of JAK2 in profiling (in words) (JAK2)	IC50 (NUAK1) [nM]	Inhibition of NUAK2 (in words) (NUAK2)	ABL activity, percentage of DMSO control (ABL) [percentage]	JAK2 activity, percentage of DMSO control (JAK2) [percentage]	IC50 (NUAK2; read-out: IC50 for NUAK2 (wild-type GST–NUAK2)) [nM]	Aurora A activity, percentage of DMSO control (Aurora A; 0.1 or 1 μM inhibitor, mean of triplicate) [percentage]	IC50 (NUAK2; bound given in text, read-out: IC50 for NUAK2) [nM]	Higher potency for NUAK1 than NUAK2 (NUAK2; NUAK1 versus NUAK2) [fold]
CN1C(=O)c2cc3ccccc3cc2N(C)c2nc(Nc3cnn(C4CCNCC4)c3)ncc21 [XMD-18-42]	inhibited	inhibited	inhibited	30	Neither compound significantly inhibited						
CCC(=O)Nc1cccc(Oc2nc(Nc3ccc(N4CCN(C)CC4)cc3OC)ncc2Cl)c1 [WZ4003]				20		104	65	100			
CN1C(=O)c2ccccc2N(C)c2nc(Nc3cnn(C4CCNCC4)c3)ncc21 [XMD-17-51]	inhibited	inhibited	inhibited	1.5	Neither compound significantly inhibited						
Cc1nc(Nc2cnn(C3CCNCC3)c2)nc2c1N(C)C(=O)c1cc3ccccc3cc1N2C [HTH-01-015]				100		110	101		117	> 10000	> 100
